Target: human Keap1 Kelch domain (Homo sapiens, UniProt Q14145)
Experiment: FP binding assay: titration of fluorescently labeled Nrf2 peptide probes with Keap1 Kelch domain
Conditions: difference in the free and the bound anisotropy of the FITC-labeled peptide

Sequence of human Keap1 Kelch domain (Q14145 with tags, fused parts or gaps): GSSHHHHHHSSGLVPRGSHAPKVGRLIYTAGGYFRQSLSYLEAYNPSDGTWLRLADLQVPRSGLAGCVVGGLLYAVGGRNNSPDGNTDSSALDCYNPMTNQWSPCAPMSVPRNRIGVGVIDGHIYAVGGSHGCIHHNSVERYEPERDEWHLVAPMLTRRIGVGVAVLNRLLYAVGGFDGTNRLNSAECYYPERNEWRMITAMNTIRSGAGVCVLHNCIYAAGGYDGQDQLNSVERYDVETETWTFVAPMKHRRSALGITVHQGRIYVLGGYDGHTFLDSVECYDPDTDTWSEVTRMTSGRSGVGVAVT

Dynamic Range (ΔmA): 64.2 mA
SMILES: CC(C)C[C@H](NC(=O)[C@H](Cc1ccccc1)NC(=O)[C@H](CCC(=O)O)NC(=O)CNC(=O)[C@@H](NC(=O)[C@H](CCC(=O)O)NC(=O)[C@H](CCC(=O)O)NC(=O)[C@H](CC(=O)O)NC(=O)[C@H](CC(C)C)NC(=O)[C@H](CCC(N)=O)NC(=O)[C@H](CC(C)C)NC(=O)[C@H](CCC(N)=O)NC(=O)[C@H](C)NC(=O)[C@H](Cc1ccccc1)NC(=S)Nc1ccc2c(c1)C(=O)OC21c2ccc(O)cc2Oc2cc(O)ccc21)[C@@H](C)O)C(=O)O [FITC-14mer Nrf2]

Source: US9075070B2, “HTS fluorescence polarization assay for inhibitors of Keap1-Nrf2 interaction” (RUTGERS, THE STATE UNIVERSITY OF NEW JERSEY, priority 2011, dated 2015)
